Source: US5208217A, “Hepatospecific insulin analogues” (Mount Sinai School of Medicine of The City University of …, priority 1991, dated 1993)

Legend:
isolated rat adipocytes = test: Lipogenesis assay: conversion of [3-3H] glucose into lipids; assay type: cell-based; conditions: FIG. 3
Description: In this Example the materials used and the analytical procedures followed are those found in Kitagawa et al., Biochemistry, 23: 1405-1413 (1984). ^125 I-insulin for receptor binding studies and [3-^3 H] glucose for lipogenesis were obtained from DuPont NEN Research Products. Cellulose acetate membrane filters, 0.2 μm pore size, were products of Sartorius. Glass-fiber filters, Type GFC, were from Whatman. Collagenase, Type II crude, was obtained from Worthington. The scintillation fluids Filtron-X®, Hydrofluor® and Soluscint-O® were products of National Diagnostics. Crystalline bovine insulin was from Sigma, and fatty-acid free bovine serum albumin from Boehringer - Mannheim Biochemicals.
The data points represent the mean triplicate determinations in representative assays performed four times.

[1] = system: FAO cells (well differentiated hepatoma cell line); test: Inhibition of gluconeogenesis assay (glucose secretion into the medium); assay type: cell-based; conditions: FIG. 4
Procedure: This assay was carried out on confluent monolayers of a well differentiated hepatoma cell line (Lauris et al. Endocrinology 118:2519-2524 (1986)) in which glucose production was monitored with a commercial glucose oxidase kit (Sigma kit no. 510-A, Sigma Technical Bulletin 510, 1983). Inhibition of glucose secretion into the medium was determined as a function of the concentration of insulin or insulin analogue, and the relative potency of the analogue was defined as the ratio of the concentration of insulin to analogue required to produce half-maximal inhibition of glucose production. The cell culture and glucose production was carried out as described by Lauris et al., supra.
The potency of the synthetic insulin in inhibiting gluconeogenesis is calculated to be about 90% relative to the natural hormone.

Substance: [Trp^14 -A] insulin
- Concentration of agonist producing half-maximal stimulation of lipogenesis compared with bovine insulin (isolated rat adipocytes): about twice the concentration
- Maximum stimulation of lipogenesis compared with bovine insulin (isolated rat adipocytes): same maximum stimulation
- Concentration of agonist producing half-maximal inhibition of gluconeogenesis compared with insulin [1]: approximately the same concentration
- Maximum inhibition of gluconeogenesis compared with insulin [1]: same maximum inhibition
